These results are taken from US9296732B2, “Substituted benzamides and their uses” (The Board of Trustees of the Leland Stanford Junior …, priority 2012, dated 2016).

SMILES strings stand for the structures.

Broadly, the melting point is the temperature, or range, at which the solid turns liquid.

`COc1ccc(S(=O)(=O)Cc2nc(-c3ccc(C(=O)NCc4cccnc4)cc3)oc2C)cc1OC` [Example 20, 4-(4-{[(3,4-Dimethoxyphenyl)sulfonyl]methyl}-5-methyl-1,3-oxazol-2-yl)-N-(3-pyridinylmethyl)benzamide]: the melting point lay in the range of 104 to 108 °C.

`Cc1ccc(S(=O)(=O)Cc2csc(-c3ccc(C(=O)NCc4cccnc4)cc3)n2)cc1` [Example 25, 4-(4-{[(4-Methylphenyl)sulfonyl]methyl}-1,3-thiazol-2-yl)-N-(3-pyridinylmethyl)benzamide] returned a melting point of 178 to 181 °C.

Regarding `Cc1oc(-c2ccc(C(=O)NCc3cccnc3)cc2)nc1CS(=O)(=O)c1ccc(Cl)cc1` [Example 13, 4-(4-{[(4-Chlorophenyl)sulfonyl]methyl}-5-methyl-1,3-oxazol-2-yl)-N-(3-pyridinylmethyl)benzamide], the melting point fell in the range of 220 to 222 °C.

Consider `Cc1ccc(S(=O)(=O)Cc2nc(-c3ccc(C(=O)N(C)Cc4cccnc4)cc3)oc2C)cc1` [Example 7, N-Methyl-4-(5-methyl-4-{[(4-methylphenyl)sulfonyl]methyl}-1,3-oxazol-2-yl)-N-(3-pyridinylmethyl)benzamide], for which the melting point was in the range of 77 to 80 °C.

On to `Cc1ccc(S(=O)(=O)Cc2nc(-c3ccc(C(=O)N(C)c4cccnc4)cc3)oc2C)cc1` [Example 3, N-Methyl-4-(5-methyl-4-{[(4-methylphenyl)sulfonyl]methyl}-1,3-oxazol-2-yl)-N-(3-pyridinyl)benzamide], for which the melting point was in the range of 195 to 197 °C.

The compound `Cc1ccc(S(=O)(=O)Cc2nc(-c3ccc(C(=O)NCc4ccccn4)cc3)oc2C)cc1` [Example 4, 4-(5-Methyl-4-{[(4-methylphenyl)sulfonyl]methyl}-1,3-oxazol-2-yl)-N-(2-pyridinylmethyl)benzamide] gave a melting point of 154 to 155 °C.

In turn, `Cc1oc(-c2ccc(C(=O)NCc3cccnc3)cc2)nc1CS(=O)(=O)c1ccc(F)cc1` [Example 22, 4-(4-{[(4-Fluorophenyl)sulfonyl]methyl}-5-methyl-1,3-oxazol-2-yl)-N-(3-pyridinylmethyl)benzamide] registered a melting point of 218 to 220 °C.

Compound `Cc1oc(-c2ccc(C(=O)NCc3ccccc3)cc2)nc1CS(=O)(=O)c1ccc(Br)cc1` [Example 27, N-Benzyl-4-(4-{[(4-bromophenyl)sulfonyl]methyl}-5-methyl-1,3-oxazol-2-yl)benzamide] came in with a melting point of 234 to 237 °C.

In turn, `COc1ccc(S(=O)(=O)Cc2nc(-c3ccc(C(=O)NCc4cccnc4)cc3)oc2C)cc1` [Example 18, 4-(4-{[(4-Methoxyphenyl)sulfonyl]methyl}-5-methyl-1,3-oxazol-2-yl)-N-(3-pyridinylmethyl)benzamide] gave a melting point of 189 to 191 °C.

With `Cc1oc(-c2ccc(C(=O)NCc3cccnc3)cc2)nc1CS(=O)(=O)c1ccc(Br)cc1` [Example 16, 4-(4-{[(4-Bromophenyl)sulfonyl]methyl}-5-methyl-1,3-oxazol-2-yl)-N-(3-pyridinylmethyl)benzamide], the melting point was in the range of 224 to 227 °C.

With `O=C(Nc1cccnc1)c1ccc(CNS(=O)(=O)c2ccc(Cl)nc2)cc1` [II-2, 4-({[(6-Chloro-3-pyridinyl)sulfonyl]amino}methyl)-N-(3-pyridinyl)benzamide], the melting point was in the range of 226 to 228 °C.

For `O=C(Nc1cccnc1)c1ccc(CNS(=O)(=O)c2nnc[nH]2)cc1` [II-7, N-(3-pyridinyl)-4-{[(4H-1,2,4-triazol-3-ylsulfonyl)amino]methyl}benzamide], the melting point lay within 266 to 269 °C.

Turning to `Cc1cccc(S(=O)(=O)Cc2nc(-c3ccc(C(=O)NCc4cccnc4)cc3)oc2C)c1` [Example 17, 4-(5-Methyl-4-{[(3-methylphenyl)sulfonyl]methyl}-1,3-oxazol-2-yl)-N-(3-pyridinylmethyl)benzamide], the melting point lay in the range of 179 to 181 °C.

In turn, `Cc1oc(-c2ccc(C(=O)NCc3cccnc3)cc2)nc1CS(=O)(=O)c1ccc(C(C)(C)C)cc1` [Example 14, 4-(4-{[(4-tert-Butylphenyl)sulfonyl]methyl}-5-methyl-1,3-oxazol-2-yl)-N-(3-pyridinylmethyl)benzamide] displayed a melting point of 177 to 180 °C.

On to `Cc1oc(-c2ccc(C(=O)NCc3cccnc3)cc2)nc1CS(=O)(=O)c1ccccc1` [Example 12, 4-[5-Methyl-4-[(phenylsulfonyl)methyl]-1,3-oxazol-2-yl]-N-(3-pyridinylmethyl)benzamide], for which the melting point lay within 196 to 198 °C.

With `Cc1ncc(S(=O)(=O)NCc2ccc(C(=O)Nc3cccnc3)cc2)n1C` [II-6, 4-({[(1,2-Dimethyl-1H-imidazol-5-yl)sulfonyl]amino}methyl)-N-(3-pyridinyl)benzamide], the melting point is 238 to 240 °C.

`Cc1oc(-c2ccc(C(=O)NCc3cccnc3)cc2)nc1CS(=O)(=O)c1ccc(N2CCN(C)CC2)cc1` [Example 23, 4-[5-Methyl-4-({[4-(4-methyl-1-piperazinyl)phenyl]sulfonyl}methyl)-1,3-oxazol-2-yl]-N-(3-pyridinylmethyl)benzamide] displayed a melting point of 210 to 215 °C.

Compound `Cc1ccc(S(=O)(=O)Cc2nc(-c3ccc(C(=O)NCc4cncn4C)cc3)oc2C)cc1` [Example 11, N-[(1-Methyl-1H-imidazol-5-yl)methyl]-4-(5-methyl-4-{[(4-methylphenyl)sulfonyl]methyl}-1,3-oxazol-2-yl)benzamide] came in with a melting point of 240 to 242 °C.

Compound `Cc1ccc(S(=O)(=O)Cc2nc(-c3ccc(C(=O)NCc4nccn4C)cc3)oc2C)cc1` [Example 10, N-[(1-Methyl-1H-imidazol-2-yl)methyl]-4-(5-methyl-4-{[(4-methylphenyl)sulfonyl]methyl}-1,3-oxazol-2-yl)benzamide] showed a melting point of 190 to 192 °C.

Turning to `Cc1ccc(S(=O)(=O)Cc2nc(-c3ccc(C(=O)Nc4ccncc4)cc3)oc2C)cc1` [Example 2, 4-(5-Methyl-4-{[(4-methylphenyl)sulfonyl]methyl}-1,3-oxazol-2-yl)-N-(4-pyridinyl)benzamide], the melting point was in the range of 229 to 231 °C.

Take `Cc1ccc(S(=O)(=O)Cc2nc(-c3ccc(C(=O)Nc4cccnc4)cc3)oc2C)cc1` [Example 1, 4-(5-Methyl-4-{[(4-methylphenyl)sulfonyl]methyl}-1,3-oxazol-2-yl)-N-(3-pyridinyl)benzamide]: the melting point was 248 to 250 °C.

`Cc1ccc(S(=O)(=O)Cc2nc(-c3ccc(C(=O)NCCc4cccnc4)cc3)oc2C)cc1` [Example 8, 4-(5-Methyl-4-{[(4-methylphenyl)sulfonyl]methyl}-1,3-oxazol-2-yl)-N-[2-(3-pyridinyl)ethyl]benzamide] registered a melting point of 207 to 208 °C.

In turn, `COc1cccc(S(=O)(=O)Cc2nc(-c3ccc(C(=O)NCc4cccnc4)cc3)oc2C)c1` [Example 19, 4-(5-Methyl-4-{[(3-methoxyphenyl)sulfonyl]methyl}-1,3-oxazol-2-yl)-N-(3-pyridinylmethyl)benzamide] came in with a melting point of 143 to 145 °C.

Compound `Cc1ccc(S(=O)(=O)Cc2nc(-c3ccc(C(=O)NCc4ccncc4)cc3)oc2C)cc1` [Example 6, 4-(5-Methyl-4-{[(4-methylphenyl)sulfonyl]methyl}-1,3-oxazol-2-yl)-N-(4-pyridinylmethyl)benzamide] came in with a melting point of 169 to 172 °C.
